Where a name gives a salt, the structure may show the parent alone.

One assay has as its system Acinetobacter baumannii ATCC17961. The assay can be described thus: Antimicrobial susceptibility testing: 90% growth inhibitory concentration (IC90) determination, Iso-Sensitest broth, OD 600 nm. To be noted: 90% growth inhibitory concentration, Acinetobacter baumannii ATCC17961, Iso-Sensitest broth, OD 600 nm over 16 h; read-out: ATCC 17961 IC90. It counts as cell-based. The method, boiled down:
(§1)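 Growth of bacteria (~5×10^5 CFU/ml, Iso-Sensitest medium, 35±2 °C) was followed by OD at 600 nm at 20-min intervals over 16 h against a 10-point twofold compound series (e.g. 50–0.097 μM final). Concentration giving 90% inhibition in log phase was reported.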
In the case of `CCc1cc(Nc2nccn3c(-c4ccc(OC)cc4S(=O)(=O)NC)cnc23)ccc1C(=O)NCCOCCN` [Example 55, N-[2-(2-aminoethoxy)ethyl]-2-ethyl-4-[[3-[4-methoxy-2-(methylsulfamoyl)phenyl]imidazo[1,2-a]pyrazin-8-yl]amino]benzamide; formic acid], the IC90 was determined as 2.79 µM. Same read-out and setting: the figure for `COc1ccc(-c2cnc3c(Nc4cc(C)c(C(=O)NCCOCCN)c(Cl)c4)nccn23)c(F)c1F` [Example 62, N-(2-(2-aminoethoxy)ethyl)-2-chloro-4-((3-(2,3-difluoro-4-methoxyphenyl)imidazo[1,2-a]pyrazin-8-yl)amino)-6-methyl-benzamide] is 1.87 µM; for `COc1ccc(-c2cnc3c(Nc4ccc(C(=O)NCCOCCN)c(F)c4F)nccn23)c(F)c1F` [Example 63, N-(2-(2-aminoethoxy)ethyl)-4-((3-(2,3-difluoro-4-methoxy-phenyl)imidazo [1,2-a]pyrazin-8-yl)amino)-2,3-difluoro-benzamide] it is 0.88 µM. Same read-out and setting: as for `CCc1cc(Nc2nccn3c(-c4ccc(OC)c(F)c4F)cnc23)ccc1C(=O)NCCNCC(=O)N1CCN[C@H](CO)C1` [Example 178, 4-[[3-(2,3-difluoro-4-methoxyphenyl)imidazo[1,2-a]pyrazin-8-yl]amino]-2-ethyl-N-[2-[[2-[(3S)-3-(hydroxymethyl)piperazin-1-yl]-2-oxoethyl]amino]ethyl]benzamide], the figure is 0.16 µM; as for `CCc1cc(Nc2nccn3c(-c4cccc(F)c4C(F)(F)F)cnc23)ccc1C(=O)NCCOCCN` [Example 179, N-[2-(2-aminoethoxy)ethyl]-2-ethyl-4-[[3-[3-fluoro-2-(trifluoromethyl)phenyl]imidazo [1,2-a]pyrazin-8-yl]amino] benzamide], 0.3 µM. Same read-out and setting: the figure for `C=CCNCCCNC(=O)c1ccc(Nc2nccn3c(-c4ccc(OC)c(F)c4F)cnc23)cc1CC` [Example 181, 4-[[3-(2,3-difluoro-4-methoxyphenyl)imidazo[1,2-a]pyrazin-8-yl]amino]-2-ethyl-N-[3-(prop-2-enylamino)propyl] benzamide; hydrochloride] is 0.16 µM. For `CCc1cc(Nc2nccn3c(-c4ccc(O)cc4C(F)(F)F)cnc23)ccc1C(=O)NCCOCCN` [Example 182, N-[2-(2-aminoethoxy)ethyl]-2-ethyl-4-[[3-[4-hydroxy-2-(trifluoromethyl)phenyl]imidazo [1,2-a]pyrazin-8-yl]amino] benzamide; hydrochloride], the IC90 turned out to be 0.22 µM. Same read-out and setting: as for `COc1ccc(-c2cnc3c(Nc4cc(C)c(C(=O)NCCOCCN(C)C)c(F)c4)nccn23)c(F)c1F` [Example 190, 4-[[3-(2,3-difluoro-4-methoxyphenyl)imidazo[1,2-a]pyrazin-8-yl]amino]-N-[2-[2-(dimethylamino)ethoxy]ethyl]-2-fluoro-6-methylbenzamide], the figure is 0.056 µM.

As for `COc1ccc(-c2cnc3c(Nc4cc(C)c(C(=O)NCCOCCN)c(F)c4)nccn23)c(F)c1F` [Example 191, N-[2-(2-amino-ethoxy]-4-[[3-(2,3-difluoro-4-methoxyphenyl)imidazo[1,2-a]pyrazin-8-yl]amino]-2-fluoro-6-methyl-benzamide; hydrochloride], the IC90 was 0.087 µM. Same read-out and setting: the figure for `COc1ccc(-c2cnc3c(Nc4ccc(C(=O)NCCOCCN)c(F)c4)nccn23)c(F)c1F` [Example 199, N-(2-(2-amino-ethoxy)ethyl)-4-((3-(2,3-difluoro-4-methoxyphenyl)imidazo[1,2-a]pyrazin-8-yl)amino)-2-fluorobenzamide] is 0.38 µM; for `C#CCOc1ccc(-c2cnc3c(Nc4ccc(C(=O)N[C@@H](C)CNCCN)c(CC)c4)nccn23)c(F)c1F` [Example 200] it is 0.63 µM; for `C#CCOc1ccc(-c2cnc3c(Nc4ccc(C(=O)N[C@@H](C)CNCCNC(C)=O)c(CC)c4)nccn23)c(F)c1F` [Example 201, N-[(1S)-2-(2-acetamidoethyl-amino)-1-methyl-ethyl]-4-[[3-(2,3-difluoro-4-prop-2-ynoxy-phenyl)imidazo[1,2-a]pyrazin-8-yl]amino]-2-ethyl-benzamide] it is 0.36 µM. On to `CCc1cc(Nc2nccn3c(-c4ccc(OC)c(F)c4F)cnc23)cc(F)c1C(=O)NCCOCCN` [Example 202, N-(2-(2-amino-ethoxy)ethyl)-4-((3-(2,3-difluoro-4-methoxyphenyl)imidazo[1,2-a]pyrazin-8-yl)amino)-2-ethyl-6-fluorobenzamide dihydrochloride], for which the IC90 was found to be 0.2 µM.

`CCc1cc(Nc2nccn3c(-c4ccc(OC)c(F)c4F)cnc23)ccc1C(=O)NCCOCC(=O)N1CCN[C@H](CO)C1` [Example 203, 4-[[3-(2,3-difluoro-4-methoxy-phenyl)imidazo [1,2-a]pyrazin-8-yl]amino]-2-ethyl-N-[2-[2-[(3S)-3-(hydroxymethyl)piperazin-1-yl]-2-oxo-ethoxy]ethyl]benzamide]: the IC90 is 0.43 µM. Still for that read-out and setting: as for `CCc1cc(Nc2nccn3c(-c4ccc(Oc5ccccn5)c(F)c4F)cnc23)ccc1C(=O)NCCOCC(=O)N1CCN[C@H](CO)C1` [Example 204, 4-[[3-[2,3-difluoro-4-(2-pyridyloxy)phenyl]imidazo [1,2-a]pyrazin-8-yl]amino]-2-ethyl-N-[2-[2-[(3S)-3-(hydroxymethyl)piperazin-1-yl]-2-oxo-ethoxy]ethyl]benzamide], the figure is 0.53 µM. Still for that read-out and setting: the figure for `CCc1cc(Nc2nccn3c(-c4ccc(Oc5ccccn5)c(F)c4F)cnc23)ccc1C(=O)NCCNCC(=O)N1CCN[C@H](CO)C1` [Example 205, 4-[[3-[2,3-difluoro-4-(2-pyridyloxy)phenyl]imidazo [1,2-a]pyrazin-8-yl]amino]-2-ethyl-N-[2-[[2-[(3S)-3-(hydroxymethyl)piperazin-1-yl]-2-oxo-ethyl]amino]ethyl]benzamide] is 0.59 µM; for `CCc1cc(Nc2nccn3c(-c4ccc(OC)cc4CC)cnc23)ccc1C(=O)NCCOCCN` [Example 206, N-(2-(2-amino-ethoxy)ethyl)-2-ethyl-4-((3-(2-ethyl-4-methoxyphenyl)imidazo[1,2-a]pyrazin-8-yl)amino)benzamide hydrochloride] it is 0.26 µM; for `C#CCOc1ccc(-c2cnc3c(Nc4ccc(C(=O)N[C@@H](C)CNCC(N)=O)c(CC)c4)nccn23)c(F)c1F` [Example 207, N-[(1S)-2-[(2-amino-2-oxo-ethyl)amino]-1-methyl-ethyl]-4-[[3-(2,3-difluoro-4-prop-2-ynoxy-phenyl)imidazo [1,2-a]pyrazin-8-yl]amino]-2-ethyl-benzamide] it is 0.35 µM. As for `COc1ccc(-c2cnc3c(Nc4cc(C)c(C(=O)NCCOCCOCCN)c(F)c4)nccn23)c(F)c1F` [Example 208, N-(2-(2-(2-aminoethoxy)ethoxy)ethyl)-4-((3-(2,3-difluoro-4-methoxyphenyl)imidazo[1,2-a]pyrazin-8-yl)amino)-2-fluoro-6-methyl-benzamide dihydrochloride], the IC90 is 0.23 µM. In the case of `CCc1cc(Nc2nccn3c(-c4cccc(F)c4F)cnc23)ccc1C(=O)NCCOCCN` [Example 209, N-[2-(2-amino-ethoxy)ethyl]-4-[[3-(2,3-difluoro-phenyl)imidazo [1,2-a]pyrazin-8-yl]amino]-2-ethyl-benzamide], the IC90 amounted to 0.33 µM.

The same assay, now with this note: Acinetobacter baumannii, ATCC17961, 16 h, read-out: ATCC 17961 IC90.
For the molecule `CCc1cc(Nc2nccn3c(-c4ccc(OC)cc4C(F)(F)F)cnc23)ccc1C(=O)NCCOCCN` [Example 56, N-(2-(2-aminoethoxy)ethyl)-2-ethyl-4-((3-(4-methoxy-2-(trifluoromethyl)phenyl)imidazo[1,2-a]pyrazin-8-yl)amino)benzamide hydrochloride], the concentration for an effect of 90% (IC90) worked out at 0.08 µM.

Consider `COc1ccc(-c2cnc3c(Nc4ccc(C(=O)NCCOCCN)c(C)c4F)nccn23)c(F)c1F` [Example 61, dihydrochloride], for which the IC90 was found to be 0.14 µM. The same measure, in the same setting: the figure for `CCc1cc(Nc2nccn3c(-c4ccc(OC)c(F)c4F)cnc23)ccc1C(=O)NCCOCCN(C)CC(=O)NS(C)(=O)=O` [Example 66, 4-((3-(2,3-difluoro-4-methoxyphenyl)imidazo[1,2-a]pyrazin-8-yl)amino)-2-ethyl-N-(2-(2-(methyl(2-(methylsulfonamido)-2-oxoethyl)amino)ethoxy)ethyl)benzamide dihydrochloride] is 0.37 µM; for `CCc1cc(Nc2nccn3c(-c4ccc(OC)c(F)c4F)cnc23)ccc1C(=O)NCCOCC(C)(C)N` [Example 72, N-[2-(2-amino-2-methyl-propoxy)ethyl]-4-[[3-(2,3-difluoro-4-methoxy-phenyl)imidazo[1,2-a]pyrazin-8-yl]amino]-2-ethyl-benzamide; formic acid] it is 0.04 µM.

The next assay deals with Acinetobacter baumannii ATCC17978. The assay is described as above. The following applies: Acinetobacter baumannii, ATCC17978, 16 h, 90% growth inhibitory concentration, Acinetobacter baumannii ATCC17978, Iso-Sensitest broth, OD 600 nm over 16 h; read-out: ATCC 17978 IC90. Format: cell-based. The method, boiled down:
as §1
With `C#CCOc1ccc(-c2cnc3c(Nc4ccc(C(=O)NCCNCCO)c(CC)c4)nccn23)c(F)c1F` [Example 195, 4-[[3-(2,3-difluoro-4-prop-2-ynoxy-phenyl)imidazo[1,2-a]pyrazin-8-yl]amino]-2-ethyl-N-[2-(2-hydroxyethyl-amino)ethyl] benzamide], the IC90 came to 0.49 µM.

Regarding `CCc1cc(Nc2nccn3c(-c4ccc(OC)c(F)c4F)cnc23)ccc1C(=O)NCCNCCO` [Example 196, 4-((3-(2,3-difluoro-4-methoxyphenyl)imidazo[1,2-a]pyrazin-8-yl)amino)-2-ethyl-N-(2-((2-hydroxyethyl)amino)ethyl) benzamide hydrochloride], the IC90 was 0.29 µM. Same read-out and setting: the figure for `CCc1cc(Nc2nccn3c(-c4ccc(OC)c(F)c4F)cnc23)ccc1C(=O)NCCCCNCC(=O)O` [Example 197, (4-(4-((3-(2,3-difluoro-4-methoxyphenyl)imidazo[1,2-a]pyrazin-8-yl)amino)-2-ethylbenzamido)butyl)glycine hydrochloride] is 0.37 µM.

By IC90 is commonly meant the concentration at which the effect reaches the 90% level.

The values above are taken from patent US20230017532A1 (Hoffmann-La Roche Inc., priority 2018, published 2023).
